Measurements from ChEMBL document CHEMBL3507680, “University of Dundee, Gates Library screen for HepG2 cell viability”.

Assay: Human HepG2 cell viability assay in 384 well format
Format: toxicity, cell-based
Set-up: dose 125 nL, time 70.5 hour; cytotoxicity at 70.5 h: concentration not given beside the values
Details: HepG2 cells, read-out: Inhibition

SMILES	cytotoxicity at 70.5 h
O=C(c1cc(-c2cccs2)nc2ccccc12)N1CCN(CCO)CC1	0.548%
CC1Cn2c(nc3c2c(=O)[nH]c(=O)n3C)O1 (stereo not drawn)	-12.3%
O=C(N[C@@H]1CN(Cc2cccs2)[C@@H]2CCCO[C@@H]21)C1CC1	-10.5%
O=C1CO[C@@H]2CN(S(=O)(=O)c3ccccc3)C[C@H]2N1CC1CC1	-13.1%
O=C(NCc1cccs1)C1CN(C(=O)c2cccs2)CC12CCOCC2 (stereo not drawn)	-8.67%
COc1cccc(S(=O)(=O)N2CCn3cnc(COCC4CC4)c3C2)c1	-10%
CS(=O)(=O)CC(=O)N1C[C@@H]2COC[C@]2(c2nnc(C3CC3)o2)C1	4.38%
O=C(NCc1cccnc1)C1=NOC2(CCN(S(=O)(=O)C3CC3)C2)C1 (stereo not drawn)	-10.8%
CC(C)N(C)C(=O)C1=NOC2(CCN(C(=O)c3ccc(Cl)cc3)C2)C1 (stereo not drawn)	-0.00349%
O=C1NC2(CCN(CC(=O)N3CCOCC3)CC2)Nc2ccc(Br)cc21	-2.15%
Cc1nn(C)cc1CN1CCCC(n2c(=O)oc3ccccc32)C1 (stereo not drawn)	0.702%
CSc1ncc(C(=O)NCCn2nccc2C)cn1	-2.28%
CC(C)c1ncc(CN2CCC(O)(c3ccccc3F)CC2)cn1	2.86%
COCCC(=O)N1CCC2(CC1)CN(S(C)(=O)=O)Cc1ccccc1O2	-2.27%
CCc1ncc(CN2CCC(O)(c3ccccc3F)CC2)cn1	-4.61%
Cc1ncc(CN2CCC(O)(c3ccccc3F)CC2)cn1	-0.616%
Cn1ncc(Cl)c1C(=O)N1CCC(c2nnsc2S(C)(=O)=O)CC1	7.94%
COc1cc2c(cc1CCC(=O)O)CCC2	17.1%
CCN(CC)S(=O)(=O)c1cc2c3c(c1)c(C)cc(=O)n3CC2	3.57%
Cc1cccnc1C(Cc1ccsc1)NCc1cnc(N(C)C)nc1 (stereo not drawn)	-8.31%
COc1ccc(C(=O)N2CCOCC2c2[nH]ncc2C)cc1F (stereo not drawn)	-3.4%
CO[C@@H]1CCC[C@@H](NC(=O)CCCn2cncn2)[C@H]1O	-1.73%
CCCn1nc(C)c(C(=O)N[C@@H]2CC[C@@H](N3CCCC3)[C@@H]2O)c1C	-6.2%

SMILES	cytotoxicity at 70.5 h
Cc1nccn1[C@@H]1CC[C@@H](NC(=O)CCCn2cncn2)[C@H]1O	16.1%
O=C(O)CCCC(=O)NCC1(O)CCN(c2ccnc3cccnc23)C1 (stereo not drawn)	1.69%
CSCC[C@@H]1CN2CCC[C@H]2CN1Cc1coc2ccc(C)cc2c1=O	-1.62%
CC(C)(C)c1ccc(OCC(N)=O)c(CN2C[C@H]3C[C@H](O)C[C@H]3C2)c1	-7.47%
Cc1ccc(CN2CCOC(c3cnccn3)C2)s1 (stereo not drawn)	-5.54%
COc1ccc2c(c1)C(=O)NC1(CC2)CCN(Cc2ccccc2)C1 (stereo not drawn)	-3.55%
CCOc1ccc(CN2CCC(c3nc(C)cc(C)n3)C2)cc1CO (stereo not drawn)	2.12%
O=C(O)C1CN(c2cncc(Cc3ccccc3)n2)C1	-3.73%
CN1CCC(c2n[nH]cc2-c2ccnc(N)c2)C1 (stereo not drawn)	0.193%
CC(C)N1CCC(c2n[nH]cc2-c2ccnc(N)c2)C1 (stereo not drawn)	2.17%
CN(C)S(=O)(=O)N1CCC(c2n[nH]cc2-c2ccnc(N)c2)C1 (stereo not drawn)	5.75%
Cc1c[nH]c(C2COCCN2C(=O)c2ccc(=O)[nH]n2)n1 (stereo not drawn)	-4.98%
c1ccc(Cc2cccc(C3CCCN3C3CCOCC3)n2)cc1 (stereo not drawn)	-13.2%
CC(=O)N1CC(C(=O)N2CCCC(Cn3ccnc3C)C2)C1 (stereo not drawn)	-9.41%
CCC(=O)N1CCCC1(C)c1nc(C)no1 (stereo not drawn)	-6.82%
OCC(CO)N1CCCC(Cc2ccnc(Nc3ccccn3)c2)C1 (stereo not drawn)	-14.9%
O=C(NC1CCCN(c2ccccn2)C1)C1(c2ccccc2F)CC1 (stereo not drawn)	15.1%
CNC(=O)c1sc2ccccc2c1C1CCN(c2nc(C)cc(C)n2)C1 (stereo not drawn)	-6.07%
Oc1cc(C2CCCCN2CC2CC2)nc(-c2ccncc2)n1 (stereo not drawn)	-10.4%
Cc1nc(C2CCCCN2S(C)(=O)=O)no1 (stereo not drawn)	-13.4%
Oc1cc(C2CCCCN2C2CCCC2)nc(-c2ccncc2)n1 (stereo not drawn)	-14.1%
Cc1nc(-c2ccc(F)cc2)cc(C2CCNCC2)n1	-10%
Cc1nn(C(C)C)cc1S(=O)(=O)N(C)Cc1nonc1C	-7.62%

SMILES	cytotoxicity at 70.5 h
Cc1nnc(C2CCN(c3ccc(F)cc3)CC2)o1	-9.58%
CN(C)c1nccnc1C1CCN(C2CCCCC2O)CC1 (stereo not drawn)	-8.92%
CNc1cc(C2CN(C(=O)c3ccn(C)n3)CCO2)nc(C)n1 (stereo not drawn)	26.5%
CNc1cc(C2CN(C(=O)c3ccccc3)CCO2)nc(C)n1 (stereo not drawn)	-5.28%
CNc1cc(C2CN(C(=O)c3cscn3)CCO2)nc(C)n1 (stereo not drawn)	26%
O=C(O)c1ccccc1-n1cnc(CN2CCc3ccccc32)c1	-7.59%
Cc1cc(C)nc(C2CCCN2S(=O)(=O)N2CCOCC2)n1 (stereo not drawn)	-4.98%
Cc1cc(O)cc(C2CCCN2C(=O)c2ccncc2)n1 (stereo not drawn)	-5.31%
CC[C@@H](Cn1ncc2ccccc2c1=O)NC(=O)c1ccco1	-8.28%
Cc1ncc(CN2CCc3c(nc4cc(C5CC5)nn4c3O)C2)n1C	-2.73%
O=C(Cc1cccc(F)c1F)NC1COc2ccccc2C1=O (stereo not drawn)	-10.6%
Cc1nn(C)c(C)c1NC(=O)CNC(c1ccccc1)C1CCCC1 (stereo not drawn)	-9.64%
CCCN(CCC)C(=O)c1sc(C)nc1C	-7.05%
CC(SCCNS(=O)(=O)c1cnn(C)c1)c1cccs1 (stereo not drawn)	-4.4%
CCc1cnc(CNC(=O)NC2CC(C)(C)OC2(C)C)s1 (stereo not drawn)	12.1%
Cc1nc(C)c(CNC(=O)NC2CC(C)(C)OC2(C)C)s1 (stereo not drawn)	-0.473%
Cc1nc(-c2cccs2)ccc1C(=O)N1CCN(CCO)CC1	0.744%
CCC(CC)(CNC(=O)c1cccn1Cc1cccnc1)N(C)C	-3.43%
Cc1cc(NC(=O)c2ccc(C)c(F)c2)[nH]n1	-1.85%
Cc1ccc(-c2nc(CC(=O)NCC3CCOC3)cs2)o1 (stereo not drawn)	-2.56%
COCCCc1nc(-c2ccc(S(=O)(=O)N3CCCC3)cc2)cs1	-4.93%
CC(C#N)CN(C)Cc1cc(Cl)cc2cccnc12 (stereo not drawn)	-0.893%
Cc1ccc(-c2nc(CC(=O)NCC3CCCOC3)cs2)o1 (stereo not drawn)	-0.602%

SMILES	cytotoxicity at 70.5 h
CC1CCCN(C(=O)c2cn(-c3ccc(C(F)(F)F)cn3)nn2)C1 (stereo not drawn)	12.2%
CCc1ccc2c(c1)C(CCNC(=O)CCc1ccsc1)C(=O)N2 (stereo not drawn)	-2.26%
NS(=O)(=O)c1ccc(NCc2ccccc2)cc1C(F)(F)F	4.82%
CCc1nnc(S(=O)(=O)Cc2cc(Cl)c3c(c2)OCO3)n1C	-1.18%
CCN(C)S(=O)(=O)c1c(F)cc(NC(C)=O)cc1F	-2.83%
O=C(c1ccc(-c2cccs2)cc1F)N1CCN(CCO)CC1	-2.06%
Cc1nc(-c2ccccc2)ccc1C(=O)N1CCN(CCO)CC1	-1.89%
Cc1ccc(C(=O)N(C)S(C)(=O)=O)cc1Cl	-1.55%
Cc1ccc(C)c(-n2ncc(NC(=O)NC3(C)CCOC3)c2C)c1 (stereo not drawn)	14.4%
CC(C)C(C)NC(=O)c1cccn1Cc1cccnc1 (stereo not drawn)	-0.474%
Cc1ccc(C)c(-n2nnnc2SCN2CCCCC2=O)c1	-3.06%
CCOCCCNC(=O)c1cccn1Cc1cccnc1	-4.46%
CN1CCN(C(=O)CCC(=O)c2cccs2)Cc2ccccc21	-0.893%
CN1CCN(C(=O)c2cccs2)Cc2ccccc21	-0.544%
CC(=O)N(C)Cc1ccccc1NC(=O)c1ccccc1C	-2.28%
N#Cc1cnc2cc(F)cc(F)c2c1NC1CCN(CC(N)=O)CC1	-4.4%
O=C(CSc1nnc(N2CCOCC2)s1)NCc1cccs1	-2.54%
O=C(Nc1ccc(F)cc1)N1CCC(CO)(Nc2ccccc2)CC1	0.526%
CN(CC(=O)Nc1cnn(-c2ccccc2S(C)(=O)=O)c1)C1CC1	-3.94%
CC(C)C(NC(=O)N1CCS(=O)(=O)CC1)c1ccccc1Cl (stereo not drawn)	-5.93%
Cn1cc(NS(=O)(=O)CCOc2ccc(F)cc2)cn1	-4.23%
Cc1cccc(C2CCCCCN2C(=O)c2cn(CC(N)=O)nn2)c1 (stereo not drawn)	-6.65%
Cc1ccc(S(=O)(=O)NC(=O)CCC(F)(F)F)cc1N(C)C	-1.96%

SMILES	cytotoxicity at 70.5 h
Cc1ccc(S(=O)(=O)NC(=O)CCc2ccccc2)cc1N(C)C	-5.27%
O=C(N1CCCC1)C1(Cc2ccc(-c3cccs3)cc2)CCNC1 (stereo not drawn)	2.43%
Cc1nc(C2CCNC2)nc2c1CCC(=O)N2C (stereo not drawn)	-4.12%
Cc1nccn1-c1cccc(C2CCCN2)n1 (stereo not drawn)	-13.4%
Cc1nc(-c2ccc(F)c(F)c2)cc(C2CCNCC2)n1	-2.44%
CCC(CN1CCOCC1)n1cncc1-c1ccc2c(c1)CCN2CC (stereo not drawn)	21%
O=C(NCc1cncc2c1CCN(Cc1cccc(F)c1)C2)C1CC1	-1.35%
Cc1ccc2c(n1)N(C)CCN(C(=O)C1CC1)C2	-8.52%
CC(=O)NCC(=O)N1CC[C@H](OCC2CC2)[C@@H]1Cc1cccnc1	-8.28%
CS(=O)(=O)NC[C@H]1OC[C@@H]2CCN(Cc3ccc(F)cc3)C[C@@H]21	16.9%
O=C([C@H]1COC[C@H]2CN(C3CCCC3)C[C@H]21)N1CCCCO1	-12.7%
O=C([C@@H]1COC[C@H]2CN(C3CCOCC3)C[C@H]21)N1CCCCO1	18.7%
Cc1nc(N2CCCC2)nc2c1CCN(Cc1ccco1)CC2	-16.4%
O=C(c1cscn1)N1C[C@H]2CCCC(OCc3cccnc3)[C@H]2C1 (stereo partly drawn)	-11.5%
COCC(=O)N1CCC(c2nc3ccc(N4CCCC4)cn3n2)CC1	-5.18%
Cc1ccc(CN2CCc3ncc(CNS(C)(=O)=O)n3CC2)o1	-12.4%
c1cnc(N2CCOCC3(CCCN(CC4CC4)C3)C2)cn1 (stereo not drawn)	-5.91%
CC(C)Nc1nc2c(cc1C(=O)NCC1CC1)CCNCC2	-10%
COCCN1CCc2cc(C(=O)NCC3CC3)c(NC(C)C)nc2CC1	24.8%
Cc1cccc(CO[C@@H]2CC[C@H]3[C@H]2OCCN3Cc2ccsc2)n1	-12.2%
COc1nc2cc(C)ccc2cc1CN(C)Cc1cc(C)[nH]n1	-6.96%
